# Active and inactive are the calls of the source. How the calls were made is not given here.
# System: CCRIS mutagenicity, Ames/micronucleus/aberration tests
# Test: CCRIS mutagenicity studies
structure (smiles),measurement,setting,value
ClCc1ccccc1,mutagenic call,"End Point: IN VITRO CHROMOSOMAL ABERRATIONS, Test System: CHL CELLS, Metabolic Activation: RAT, LIVER, S-9, SODIUM PHENOBARBITAL AND 5,6-BENZOFLAVONE",active; positive (structural changes)
same,mutagenic call,"End Point: IN VITRO MICRONUCLEUS, Test System: CHL/IU CELLS, Metabolic Activation: NONE",active; positive
same,mutagenic call,"Test System: AMES SALMONELLA TYPHIMURIUM, Strain/Indicator: TA97, Metabolic Activation: HAMSTER, LIVER, S-9, AROCLOR 1254 (10%), Method: PREINCUBATION",inactive; negative
same,mutagenic call,"Test System: AMES SALMONELLA TYPHIMURIUM, Strain/Indicator: TA97, Metabolic Activation: HAMSTER, LIVER, S-9, AROCLOR 1254 (30%), Method: PREINCUBATION",inactive; negative
same,mutagenic call,"Test System: AMES SALMONELLA TYPHIMURIUM, Strain/Indicator: TA97, Metabolic Activation: NONE, Method: PREINCUBATION",inactive; negative
same,mutagenic call,"Test System: AMES SALMONELLA TYPHIMURIUM, Strain/Indicator: TA97, Metabolic Activation: RAT, LIVER, S-9, AROCLOR 1254 (10%), Method: PREINCUBATION",inactive; negative
same,mutagenic call,"Test System: AMES SALMONELLA TYPHIMURIUM, Strain/Indicator: TA97, Metabolic Activation: RAT, LIVER, S-9, AROCLOR 1254 (30%), Method: PREINCUBATION",inactive; negative
same,mutagenic call,"Test System: AMES SALMONELLA TYPHIMURIUM, Strain/Indicator: TA98, Metabolic Activation: HAMSTER, LIVER, S-9, AROCLOR 1254 (10%), Method: PREINCUBATION",inactive; negative
same,mutagenic call,"Test System: AMES SALMONELLA TYPHIMURIUM, Strain/Indicator: TA98, Metabolic Activation: HAMSTER, LIVER, S-9, AROCLOR 1254 (30%), Method: PREINCUBATION",inactive; negative
same,mutagenic call,"Test System: AMES SALMONELLA TYPHIMURIUM, Strain/Indicator: TA98, Metabolic Activation: NONE, Method: FLUCTUATION (MICROTITER)",inactive; negative
same,mutagenic call,"Test System: AMES SALMONELLA TYPHIMURIUM, Strain/Indicator: TA98, Metabolic Activation: NONE, Method: PREINCUBATION",inactive; negative
same,mutagenic call,"Test System: AMES SALMONELLA TYPHIMURIUM, Strain/Indicator: TA98, Metabolic Activation: RAT LIVER S-9, AROCLOR 1254, Method: FLUCTUATION (MICROTITER)",inactive; negative
same,mutagenic call,"Test System: AMES SALMONELLA TYPHIMURIUM, Strain/Indicator: TA98, Metabolic Activation: RAT LIVER S-9, PHENOBARBITAL AND BETA-NAPHTHOFLAVONE, Method: PREINCUBATION",inactive; negative
same,mutagenic call,"Test System: AMES SALMONELLA TYPHIMURIUM, Strain/Indicator: TA98, Metabolic Activation: RAT, LIVER, S-9, AROCLOR 1254 (10%), Method: PREINCUBATION",inactive; negative
same,mutagenic call,"Test System: AMES SALMONELLA TYPHIMURIUM, Strain/Indicator: TA98, Metabolic Activation: RAT, LIVER, S-9, AROCLOR 1254 (30%), Method: PREINCUBATION",inactive; negative
same,mutagenic call,"Test System: AMES SALMONELLA TYPHIMURIUM, Strain/Indicator: TA100, Metabolic Activation: HAMSTER, LIVER, S-9, AROCLOR 1254 (10 OR 30%), Method: PREINCUBATION",inactive; negative
same,mutagenic call,"Test System: AMES SALMONELLA TYPHIMURIUM, Strain/Indicator: TA100, Metabolic Activation: NONE, Method: STANDARD PLATE",inactive; negative
same,mutagenic call,"Test System: AMES SALMONELLA TYPHIMURIUM, Strain/Indicator: TA100, Metabolic Activation: RAT, LIVER, S-9, AROCLOR 1254 (10%), Method: PREINCUBATION",inactive; negative
same,mutagenic call,"Test System: AMES SALMONELLA TYPHIMURIUM, Strain/Indicator: TA100, Metabolic Activation: RAT, LIVER, S-9, AROCLOR 1254 (30%), Method: PREINCUBATION",inactive; negative
same,mutagenic call,"Test System: AMES SALMONELLA TYPHIMURIUM, Strain/Indicator: TA100, Method: STANDARD PLATE",active; positive
same,mutagenic call,"Test System: AMES SALMONELLA TYPHIMURIUM, Strain/Indicator: TA1535, Metabolic Activation: HAMSTER, LIVER, S-9, AROCLOR 1254 (10%), Method: PREINCUBATION",inactive; negative
same,mutagenic call,"Test System: AMES SALMONELLA TYPHIMURIUM, Strain/Indicator: TA1535, Metabolic Activation: HAMSTER, LIVER, S-9, AROCLOR 1254 (30%), Method: PREINCUBATION",inactive; negative
same,mutagenic call,"Test System: AMES SALMONELLA TYPHIMURIUM, Strain/Indicator: TA1535, Metabolic Activation: NONE, Method: PREINCUBATION",inactive; negative
same,mutagenic call,"Test System: AMES SALMONELLA TYPHIMURIUM, Strain/Indicator: TA1535, Metabolic Activation: RAT LIVER S-9, PHENOBARBITAL AND BETA-NAPHTHOFLAVONE, Method: PREINCUBATION",inactive; negative
same,mutagenic call,"Test System: AMES SALMONELLA TYPHIMURIUM, Strain/Indicator: TA1535, Metabolic Activation: RAT, LIVER, S-9, AROCLOR 1254 (10%), Method: PREINCUBATION",inactive; negative
same,mutagenic call,"Test System: AMES SALMONELLA TYPHIMURIUM, Strain/Indicator: TA1535, Metabolic Activation: RAT, LIVER, S-9, AROCLOR 1254 (30%), Method: PREINCUBATION",inactive; negative
same,mutagenic call,"Test System: AMES SALMONELLA TYPHIMURIUM, Strain/Indicator: TA1537, Metabolic Activation: HAMSTER, LIVER, S-9, AROCLOR 1254 (10%), Method: PREINCUBATION",inactive; negative
same,mutagenic call,"Test System: AMES SALMONELLA TYPHIMURIUM, Strain/Indicator: TA1537, Metabolic Activation: NONE, Method: FLUCTUATION (MICROTITER)",inactive; negative
same,mutagenic call,"Test System: AMES SALMONELLA TYPHIMURIUM, Strain/Indicator: TA1537, Metabolic Activation: NONE, Method: PREINCUBATION",inactive; negative
same,mutagenic call,"Test System: AMES SALMONELLA TYPHIMURIUM, Strain/Indicator: TA1537, Metabolic Activation: RAT LIVER S-9, AROCLOR 1254, Method: FLUCTUATION (MICROTITER)",inactive; negative
same,mutagenic call,"Test System: AMES SALMONELLA TYPHIMURIUM, Strain/Indicator: TA1537, Metabolic Activation: RAT LIVER S-9, PHENOBARBITAL AND BETA-NAPHTHOFLAVONE, Method: PREINCUBATION",inactive; negative
same,mutagenic call,"Test System: AMES SALMONELLA TYPHIMURIUM, Strain/Indicator: TA1537, Metabolic Activation: RAT, LIVER, S-9, AROCLOR 1254 (10%), Method: PREINCUBATION",inactive; negative
same,mutagenic call,"Test System: AMES SALMONELLA TYPHIMURIUM, Strain/Indicator: TA7001, Metabolic Activation: NONE, Method: FLUCTUATION (MICROTITER)",inactive; negative
same,mutagenic call,"Test System: AMES SALMONELLA TYPHIMURIUM, Strain/Indicator: TA7001, Metabolic Activation: RAT LIVER S-9, AROCLOR 1254, Method: FLUCTUATION (MICROTITER)",inactive; negative
same,mutagenic call,"Test System: AMES SALMONELLA TYPHIMURIUM, Strain/Indicator: TA7002, Metabolic Activation: NONE, Method: FLUCTUATION (MICROTITER)",inactive; negative
same,mutagenic call,"Test System: AMES SALMONELLA TYPHIMURIUM, Strain/Indicator: TA7002, Metabolic Activation: RAT LIVER S-9, AROCLOR 1254, Method: FLUCTUATION (MICROTITER)",inactive; negative
same,mutagenic call,"Test System: AMES SALMONELLA TYPHIMURIUM, Strain/Indicator: TA7003, Metabolic Activation: NONE, Method: FLUCTUATION (MICROTITER)",inactive; negative
same,mutagenic call,"Test System: AMES SALMONELLA TYPHIMURIUM, Strain/Indicator: TA7003, Metabolic Activation: RAT LIVER S-9, AROCLOR 1254, Method: FLUCTUATION (MICROTITER)",inactive; negative
same,mutagenic call,"Test System: AMES SALMONELLA TYPHIMURIUM, Strain/Indicator: TA7004, Metabolic Activation: NONE, Method: FLUCTUATION (MICROTITER)",active; positive
same,mutagenic call,"Test System: AMES SALMONELLA TYPHIMURIUM, Strain/Indicator: TA7004, Metabolic Activation: RAT LIVER S-9, AROCLOR 1254, Method: FLUCTUATION (MICROTITER)",inactive; negative
same,mutagenic call,"Test System: AMES SALMONELLA TYPHIMURIUM, Strain/Indicator: TA7005, Metabolic Activation: NONE, Method: FLUCTUATION (MICROTITER)",active; positive
same,mutagenic call,"Test System: AMES SALMONELLA TYPHIMURIUM, Strain/Indicator: TA7005, Metabolic Activation: RAT LIVER S-9, AROCLOR 1254, Method: FLUCTUATION (MICROTITER)",inactive; negative
same,mutagenic call,"Test System: AMES SALMONELLA TYPHIMURIUM, Strain/Indicator: TA7006, Metabolic Activation: NONE, Method: FLUCTUATION (MICROTITER)",inactive; negative
same,mutagenic call,"Test System: AMES SALMONELLA TYPHIMURIUM, Strain/Indicator: TA7006, Metabolic Activation: RAT LIVER S-9, AROCLOR 1254, Method: FLUCTUATION (MICROTITER)",inactive; negative
same,mutagenic call,"Test System: Ames Salmonella typhimurium, Strain/Indicator: TA98, Metabolic Activation: None, Method: Direct plate-incorporation",inactive; negative (no data given in original article)
same,mutagenic call,"Test System: Ames Salmonella typhimurium, Strain/Indicator: TA98, Metabolic Activation: None, Method: Direct plate-incorporation using closed container","inactive; negative, moderate toxicity at highest dose."
same,mutagenic call,"Test System: Ames Salmonella typhimurium, Strain/Indicator: TA98, Metabolic Activation: None, Method: Vaporization-diffusion",inactive; negative
same,mutagenic call,"Test System: Ames Salmonella typhimurium, Strain/Indicator: TA98, Metabolic Activation: Rat, liver, S-9, Aroclor 1254, Method: Direct plate-incorporation",inactive; negative (no data given in original article)
same,mutagenic call,"Test System: Ames Salmonella typhimurium, Strain/Indicator: TA98, Metabolic Activation: Rat, liver, S-9, Aroclor 1254, Method: Direct plate-incorporation using closed container","inactive; negative, moderate toxicity at highest dose."
same,mutagenic call,"Test System: Ames Salmonella typhimurium, Strain/Indicator: TA98, Metabolic Activation: Rat, liver, S-9, Aroclor 1254, Method: Preincubation","inactive; negative, strain also tested without s-9, but moderate to high toxicity was obse"
same,mutagenic call,"Test System: Ames Salmonella typhimurium, Strain/Indicator: TA98, Metabolic Activation: Rat, liver, S-9, Aroclor 1254, Method: Vaporization-diffusion",inactive; negative
same,mutagenic call,"Test System: Ames Salmonella typhimurium, Strain/Indicator: TA100, Metabolic Activation: None, Method: Direct plate-incorporation",inactive; negative
same,mutagenic call,"Test System: Ames Salmonella typhimurium, Strain/Indicator: TA100, Metabolic Activation: None, Method: Vaporization-diffusion","active; positive at all doses, effect of duration of exposure evident, with only 3-hr ex"
same,mutagenic call,"Test System: Ames Salmonella typhimurium, Strain/Indicator: TA100, Metabolic Activation: Rat, liver, S-9, Aroclor 1254, Method: Direct plate-incorporation","active; positive (weak but dose related response; in previous test, higher dose of 2,500"
same,mutagenic call,"Test System: Ames Salmonella typhimurium, Strain/Indicator: TA100, Metabolic Activation: Rat, liver, S-9, Aroclor 1254, Method: Preincubation","active; positive, weak, dose-related increase in number of revertants noted. strain also"
same,mutagenic call,"Test System: Ames Salmonella typhimurium, Strain/Indicator: TA100, Metabolic Activation: Rat, liver, S-9, Aroclor 1254, Method: Vaporization-diffusion","active; positive at all doses, effect of duration of exposure evident, with only 3-hr ex"
same,mutagenic call,"Test System: Ames Salmonella typhimurium, Strain/Sex: TA100, Metabolic Activation: None, Method: Direct plate-incorporation using closed container","active; positive, moderate toxicity at highest dose."
same,mutagenic call,"Test System: Ames Salmonella typhimurium, Strain/Sex: TA100, Metabolic Activation: Rat, liver, S-9, Aroclor 1254, Method: Direct plate-incorporation using closed container","active; positive, moderate toxicity at highest dose."
same,mutagenic call,"Test System: UDS HUMAN FIBROBLASTS, Strain/Indicator: THY INCORP (NON-S-PHASE), Metabolic Activation: NONE, Method: LIQUID SCINTILLATION COUNTING",active; positive
